Assay results published in PubChem BioAssay AID2060614 (Molecular Pharmacology Branch, DTP, NCI, 2025).

Tested on: 598228-144-R-J1-PDC complex spheroids, viability
Test: Anticancer human tumor 598228-144-R-J1-PDC patient-derived serous endometrial adenocarcinoma cell line growth inhibition [CLK]
Conditions: for IC50: curve of first compound; for viability, T/C: stronger effect = lower value
How it was run: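 Patient-derived tumor cells grown as complex spheroids with HUVEC endothelial cells and mesenchymal stem cells, treated with drug combinations. Concentrations descend in half-log steps from near clinical Cmax, or from 10 microM if Cmax unknown.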

[1] = second compound 0.0316 µM, first compound 0.0316 µM
[2] = second compound 0.0316 µM, first compound 0.1 µM
[3] = second compound 0.0316 µM, first compound 0.316 µM
[4] = second compound 0.0316 µM, first compound 1 µM
[5] = second compound 0.0316 µM, first compound 3.16 µM
[6] = second compound 0.0316 µM, first compound 10 µM
[7] = second compound 0.1 µM, first compound 0.0316 µM
[8] = second compound 0.1 µM, first compound 0.1 µM
[9] = second compound 0.1 µM, first compound 0.316 µM
[10] = second compound 0.1 µM, first compound 1 µM
[11] = second compound 0.1 µM, first compound 3.16 µM
[12] = second compound 0.1 µM, first compound 10 µM
[13] = second compound 0.316 µM, first compound 0.0316 µM
[14] = second compound 0.316 µM, first compound 0.1 µM
[15] = second compound 0.316 µM, first compound 0.316 µM
[16] = second compound 0.316 µM, first compound 1 µM
[17] = second compound 0.316 µM, first compound 3.16 µM
[18] = second compound 0.316 µM, first compound 10 µM
[19] = second compound 1 µM, first compound 0.0316 µM
[20] = second compound 1 µM, first compound 0.1 µM
[21] = second compound 1 µM, first compound 0.316 µM
[22] = second compound 1 µM, first compound 1 µM
[23] = second compound 1 µM, first compound 3.16 µM
[24] = second compound 1 µM, first compound 10 µM
[25] = second compound 3.16 µM, first compound 0.0316 µM
[26] = second compound 3.16 µM, first compound 0.1 µM
[27] = second compound 3.16 µM, first compound 0.316 µM
[28] = second compound 3.16 µM, first compound 1 µM
[29] = second compound 3.16 µM, first compound 3.16 µM
[30] = second compound 3.16 µM, first compound 10 µM
[31] = second compound 10 µM, first compound 0.0316 µM
[32] = second compound 10 µM, first compound 0.1 µM
[33] = second compound 10 µM, first compound 0.316 µM
[34] = second compound 10 µM, first compound 1 µM
[35] = second compound 10 µM, first compound 3.16 µM
[36] = second compound 10 µM, first compound 10 µM
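Note: spheroids exposed to compounds for seven days before readout.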
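Throughout, for viability, T/C: 100% = DMSO vehicle control wells.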

Q: For `C=CC(=O)N1CCN(c2nc(=O)n(-c3c(C)ccnc3C(C)C)c3nc(-c4c(O)cccc4F)c(F)cc23)C(C)C1` (stereo unspecified) + CNC(=O)c1ccc(Nc2nc(OC3CCCC3)c3c(-c4ccc5nc(C)oc5c4)c[nH]c3n2)c(OC)c1, which IC50 (second compound 0.0316 µM) is on record?
A: > 10 µM

Q: And the IC50 (second compound 0.1 µM)?
A: > 10 µM

Q: And the IC50 (second compound 0.316 µM)?
A: > 10 µM

Q: What about the IC50 (second compound 1 µM) of the same molecule?
A: > 10 µM

Q: What about the IC50 (second compound 3.16 µM) of the same molecule?
A: > 10 µM

Q: What about the IC50 (second compound 10 µM) of the same molecule?
A: > 10 µM

Q: And the viability, T/C [1]?
A: 97.9%

Q: What about the viability, T/C [2] of the same molecule?
A: 110%

Q: And the viability, T/C [3]?
A: 101%

Q: What about the viability, T/C [4] of the same molecule?
A: 123%

Q: And the viability, T/C [5]?
A: 135%

Q: And the viability, T/C [6]?
A: 111%

Q: And the viability, T/C [7]?
A: 100%

Q: And the viability, T/C [8]?
A: 111%

Q: What about the viability, T/C [9] of the same molecule?
A: 117%

Q: And the viability, T/C [10]?
A: 114%

Q: And the viability, T/C [11]?
A: 127%

Q: What about the viability, T/C [12] of the same molecule?
A: 118%

Q: And the viability, T/C [13]?
A: 120%

Q: And the viability, T/C [14]?
A: 100%

Q: And the viability, T/C [15]?
A: 110%

Q: What about the viability, T/C [16] of the same molecule?
A: 127%

Q: What about the viability, T/C [17] of the same molecule?
A: 120%

Q: What about the viability, T/C [18] of the same molecule?
A: 111%

Q: And the viability, T/C [19]?
A: 102%

Q: What about the viability, T/C [20] of the same molecule?
A: 96.7%

Q: What about the viability, T/C [21] of the same molecule?
A: 109%

Q: What about the viability, T/C [22] of the same molecule?
A: 137%

Q: And the viability, T/C [23]?
A: 117%

Q: And the viability, T/C [24]?
A: 99.3%

Q: What about the viability, T/C [25] of the same molecule?
A: 99.8%

Q: What about the viability, T/C [26] of the same molecule?
A: 86.1%

Q: And the viability, T/C [27]?
A: 97.5%

Q: What about the viability, T/C [28] of the same molecule?
A: 109%

Q: What about the viability, T/C [29] of the same molecule?
A: 116%

Q: What about the viability, T/C [30] of the same molecule?
A: 85.3%

Q: And the viability, T/C [31]?
A: 87.6%

Q: And the viability, T/C [32]?
A: 88.7%

Q: What about the viability, T/C [33] of the same molecule?
A: 96.4%

Q: What about the viability, T/C [34] of the same molecule?
A: 104%

Q: And the viability, T/C [35]?
A: 101%

Q: What about the viability, T/C [36] of the same molecule?
A: 77.3%

Q: What does the source list for `CCCS(=O)(=O)Nc1ccc(F)c(C(=O)c2c[nH]c3ncc(-c4ccc(Cl)cc4)cc23)c1F` + CNC(=O)c1ccc(Nc2nc(OC3CCCC3)c3c(-c4ccc5nc(C)oc5c4)c[nH]c3n2)c(OC)c1?
A: IC50 (second compound 0.0316 µM): 9.99 µM; IC50 (second compound 0.1 µM): > 10 µM; IC50 (second compound 0.316 µM): 9.64 µM; IC50 (second compound 1 µM): > 10 µM; IC50 (second compound 3.16 µM): > 10 µM; IC50 (second compound 10 µM): 9.06 µM; viability, T/C [1]: 117%; viability, T/C [2]: 104%; viability, T/C [3]: 113%; viability, T/C [4]: 105%; viability, T/C [5]: 93.5%; viability, T/C [6]: 49.5%; viability, T/C [7]: 102%; viability, T/C [8]: 101%; viability, T/C [9]: 102%; viability, T/C [10]: 111%; viability, T/C [11]: 115%; viability, T/C [12]: 51.6%; viability, T/C [13]: 99.4%; viability, T/C [14]: 105%; viability, T/C [15]: 87.2%; viability, T/C [16]: 100%; viability, T/C [17]: 83.5%; viability, T/C [18]: 48.6%; viability, T/C [19]: 96.5%; viability, T/C [20]: 104%; viability, T/C [21]: 94.8%; viability, T/C [22]: 99.3%; viability, T/C [23]: 88.4%; viability, T/C [24]: 57.1%; viability, T/C [25]: 86.7%; viability, T/C [26]: 83.9%; viability, T/C [27]: 91.7%; viability, T/C [28]: 102%; viability, T/C [29]: 83.3%; viability, T/C [30]: 55%; viability, T/C [31]: 89%; viability, T/C [32]: 82.5%; viability, T/C [33]: 92.5%; viability, T/C [34]: 99.6%; viability, T/C [35]: 67.5%; viability, T/C [36]: 48.4%

Q: With `COC1C=CCC(C)C(C)S(=O)(=O)NC(=O)c2ccc3c(c2)N(CC2CCC21)CC1(CCCc2cc(Cl)ccc21)CO3` (stereo unspecified) + CNC(=O)c1ccc(Nc2nc(OC3CCCC3)c3c(-c4ccc5nc(C)oc5c4)c[nH]c3n2)c(OC)c1 as the molecule, how does the IC50 (second compound 0.0316 µM) read?
A: 3.22 µM

Q: What about the IC50 (second compound 0.1 µM) of the same molecule?
A: 2.59 µM

Q: And the IC50 (second compound 0.316 µM)?
A: 1.13 µM

Q: What about the IC50 (second compound 1 µM) of the same molecule?
A: 2.72 µM

Q: And the IC50 (second compound 3.16 µM)?
A: 2.01 µM

Q: What about the IC50 (second compound 10 µM) of the same molecule?
A: 2.81 µM

Q: And the viability, T/C [1]?
A: 111%

Q: And the viability, T/C [2]?
A: 108%

Q: What about the viability, T/C [3] of the same molecule?
A: 81.7%

Q: What about the viability, T/C [4] of the same molecule?
A: 69.3%

Q: What about the viability, T/C [5] of the same molecule?
A: 54.9%

Q: And the viability, T/C [6]?
A: 25.3%

Q: What about the viability, T/C [7] of the same molecule?
A: 105%

Q: And the viability, T/C [8]?
A: 96.9%

Q: And the viability, T/C [9]?
A: 61.7%

Q: And the viability, T/C [10]?
A: 70.6%

Q: And the viability, T/C [11]?
A: 59.6%

Q: And the viability, T/C [12]?
A: 22.9%

Q: What about the viability, T/C [13] of the same molecule?
A: 102%

Q: And the viability, T/C [14]?
A: 91.1%

Q: What about the viability, T/C [15] of the same molecule?
A: 60.5%

Q: And the viability, T/C [16]?
A: 53.9%

Q: What about the viability, T/C [17] of the same molecule?
A: 42.5%

Q: What about the viability, T/C [18] of the same molecule?
A: 31.5%

Q: And the viability, T/C [19]?
A: 99%

Q: What about the viability, T/C [20] of the same molecule?
A: 82.8%

Q: And the viability, T/C [21]?
A: 65.9%

Q: What about the viability, T/C [22] of the same molecule?
A: 57.8%

Q: What about the viability, T/C [23] of the same molecule?
A: 55.5%

Q: What about the viability, T/C [24] of the same molecule?
A: 37.2%

Q: And the viability, T/C [25]?
A: 92.4%

Q: What about the viability, T/C [26] of the same molecule?
A: 78.8%

Q: What about the viability, T/C [27] of the same molecule?
A: 67.3%

Q: What about the viability, T/C [28] of the same molecule?
A: 54.9%

Q: And the viability, T/C [29]?
A: 55.3%

Q: What about the viability, T/C [30] of the same molecule?
A: 25.1%

Q: What about the viability, T/C [31] of the same molecule?
A: 86.5%

Q: And the viability, T/C [32]?
A: 83.8%

Q: What about the viability, T/C [33] of the same molecule?
A: 67.2%

Q: And the viability, T/C [34]?
A: 51.9%

Q: And the viability, T/C [35]?
A: 58.3%

Q: And the viability, T/C [36]?
A: 35.4%
